Among the data in patent US20070196406A1, “1,3-Dimethylbutyl carboxanilides for controlling undesirable micro-organisms” (priority 2003, published 2007) are Efficacy in % and pest or weed control values, retold here.

The test system of assay [1] is Sphaerotheca fuliginea. As to the kind of experiment: Sphaerotheca test (cucumber)/protective. The format is in vivo. Conditions: cucumber plants, protective spray, 750 g/ha, evaluation 7 days after inoculation. On the procedure: Sphaerotheca Test (Cucumber)/Protective
Solvent: 49 parts by weight of N,N-dimethylformamide
Emulsifier: 1 part by weight of alkylaryl polyglycol ether
(§1) To produce a suitable preparation of active compound, 1 part by weight of active compound is mixed with the stated amounts of solvent and emulsifier, and the concentrate is diluted with water to the desired concentration.
To test for protective activity, young cucumber plants are sprayed with the preparation of active compound at the stated application rate. One day after the treatment, the plants are inoculated with a spore suspension of Sphaerotheca fuliginea. The plants are then placed in a greenhouse at 70% relative atmospheric humidity and a temperature of 23° C.
Evaluation is carried out 7 days after the inoculation. 0% means an efficacy which corresponds to that of the control, whereas an efficacy of 100% means that no infection is observed.

Assay [2] deals with Botrytis cinerea. Kind of assay: Botrytis test (bean)/protective. It is filed as in vivo. The conditions noted are these: 48 h, bean plants, protective spray, evaluation two days after inoculation, read-out: Efficacy in %. On the procedure:
Botrytis Test (Bean)/Protective
• Solvents: 24.5 parts by weight of acetone • 24.5 parts by weight of dimethylacetamide • Emulsifier: 1 part by weight of alkylaryl polyglycol ether
as §1
To test for protective activity, young plants are sprayed with the preparation of active compound at the stated application rate. After the spray coating has dried on, 2 small pieces of agar colonized by Botrytis cinerea are placed under each leaf. The inoculated plants are placed in a dark chamber at about 20° C. and 100% relative atmospheric humidity.
Two days after the inoculation, the size of the infected areas on the leaves is evaluated. 0% means an efficacy which corresponds to that of the control, whereas an efficacy of 100% means that no infection is observed.

Consider `CC(C)CC(C)c1ccccc1NC(=O)c1cn(C)nc1Cl` (stereo not drawn) [drawing 131], for which the Efficacy in % in assay [1] stood at 100%.
Turning to `Cc1nc(C(F)F)c(C(=O)Nc2ccc(F)cc2C(C)CC(C)C)s1` (stereo not drawn) [drawing 115], the pest or weed control at 500 g/ha in assay [2] stood at 100%.
Take `Cc1sccc1C(=O)Nc1ccc(F)cc1C(C)CC(C)C` (stereo not drawn) [drawing 133]: in assay [1], the Efficacy in % is listed as 100%.
Turning to `CC(C)CC(C)c1ccccc1NC(=O)c1cn(C)nc1C(C)F` (stereo not drawn) [drawing 109], the pest or weed control at 500 g/ha in assay [2] was 99%.
In the case of `CC(C)CC(C)c1cc(F)ccc1NC(=O)c1cn(C)nc1C(F)(F)F` (stereo not drawn) [drawing 132], the Efficacy in % in assay [1] worked out at 100%.
For `CC(C)CC(C)c1ccccc1NC(=O)c1cn(C)nc1Cl` (stereo not drawn) [drawing 108], the pest or weed control at 100 g/ha in assay [2] (100 g/ha) is 100%.
